The subject of this test is Spontaneous hypertensive rat-derived vascular smooth muscle cells (VSMCs) in thoracic aorta. The experiment in a line: Inhibition test on vascular smooth muscle cells proliferation (3H-thymidine incorporation). Format: cell-based. Conditions: 3H-thymidine incorporation into DNA, 24 hours incubation with compound, read-out: Concentration of 50% inhibitory activity (IC50). On the procedure: Thus, the compounds of the present invention have a very potent inhibitory effect on vascular smooth muscle cells proliferation.
Spontaneous hypertensive rat-derived vascular smooth muscle cells (VSMCs) in thoracic aorta were isolated by explant technique. The VSMCs were placed into 96 wells at 5000 cells/well and incubated in DMEM containing 10 % fetal calf serum at 37 °C in 95 % air and 5 % carbon dioxide for 3 days. After the incubation, the medium was replaced with DMEM containing each compound and ^3H-thymidine, and then the VSMCs were incubated. 24 hours later, the incorporation of ^3H-thymidine into DNA was determined and the radioactivity was defined as proliferation inhibitory activity of VSMCs. The activity of each compound was shown as a concentration which reduced the radioactivity of non-treated group by 50 % (IC50).

Each structure is given as a SMILES string. Where two headings read alike, the source gives them in different places.

Regarding `CCOc1cccc(/C=C/C(=O)Nc2ccccc2C(N)=O)c1` [Compound 1, (E)-2-(3-Ethoxycinnamoylamino)benzamide], where the note is “Rattus norvegicus, VSMC”, the IC50 stood at 2 µM.

With `CC(C)Oc1cccc(/C=C/C(=O)Nc2ccccc2C(N)=O)c1` [Compound 2, (E)-2-(3-Isopropoxycinnamoylamino)benzamide], the IC50 (Rattus norvegicus, VSMC) turned out to be 14 µM.

As for `CCOC(=O)c1ccccc1/C=C/C(=O)Nc1ccccc1C(N)=O` [Compound 3, (E)-2-(2-Ethoxycarbonylcinnamoylamino)benzamide], for the setting “Rattus norvegicus, VSMC”, the IC50 amounted to 46 µM.

As for `COc1cccc(/C=C/C(=O)Nc2ccccc2C(N)=O)c1OC` [Compound 5, (E)-2-(2,3-Dimethoxycinnamoylamino)benzamide], where the note is “Rattus norvegicus, VSMC”, the IC50 stood at 5 µM.

Take `NC(=O)c1ccccc1NC(=O)/C=C/c1cccc(OCc2ccccc2)c1` [Compound 6, (E)-2-(3-Benzyloxycinnamoylamino)benzamide]: where the note is “Rattus norvegicus, VSMC”, the IC50 is 9 µM.

`CCCCOc1cccc(/C=C/C(=O)Nc2ccccc2C(N)=O)c1` [Compound 7, (E)-2-(3-Butoxycinnamoylamino)benzamide]: the IC50 (Rattus norvegicus, VSMC) turned out to be 86 µM.

Regarding `CCOc1ccc(/C=C/C(=O)Nc2ccccc2C(N)=O)cc1` [Compound 9, (E)-2-(4-Ethoxycinnamoylamino)benzamide], the IC50 (Rattus norvegicus, VSMC) came to 5 µM. The same measure, in the same setting: the result for `COc1cccc(/C=C/C(=O)Nc2ccccc2C(N)=O)c1` [Compound 11, (E)-2-(3-Methoxycinnamoylamino)benzamide] reads 9 µM; that for `COc1ccc(/C=C/C(=O)Nc2ccccc2C(N)=O)c(OC)c1` [Compound 12, (E)-2-(2,4-Dimethoxycinnamoylamino)benzamide], 3 µM. Still for that read-out and setting: under `COc1ccc(OC)c(/C=C/C(=O)Nc2ccccc2C(N)=O)c1` [Compound 13, (E)-2-(2,5-Dimethoxycinnamoylamino)benzamide] stands 3 µM. The same measure, in the same setting: the result for `CCOc1cc(/C=C/C(=O)Nc2ccccc2C(N)=O)ccc1OC` [Compound 16, (E)-2-(3-Ethoxy-4-methoxycinnamoylamino)benzamide] reads 5 µM. Regarding `CCCCNC(=O)c1ccccc1NC(=O)/C=C/c1ccc(OC)c(OC)c1` [Compound 19, (E)-N-Butyl-2-(3,4-dimethoxycinnamoylanino)benzamide], the IC50 was 5 µM. For the molecule `COc1ccc(/C=C/C(=O)Nc2ccccc2C(=O)NCCCc2ccccc2)cc1OC` [Compound 20, (E)-2-(3,4-Dimethoxycinnanoylamino)-N-(3-phenylpropyl)benzamide], the IC50 was found to be 7 µM.

Take `CCOc1ccccc1/C=C/C(=O)Nc1ccccc1C(N)=O` [Compound 21, (E)-2-(2-Ethoxycinnamoylamino)benzamide]: where the note is “Rattus norvegicus, VSMC”, the IC50 was 30 µM. Still for that read-out and setting: the result for `NC(=O)c1ccccc1NC(=O)/C=C/c1cccc(Cl)c1` [Compound 22, (E)-2-(3-Chlorocinnamoylamino)benzamide] reads 30 µM; that for `NC(=O)c1ccccc1NC(=O)/C=C/c1cccc(F)c1` [Compound 23, (E)-2-(3-Fluorocinnamoylamino)benzamide], 39 µM; that for `COc1ccccc1/C=C/C(=O)Nc1ccccc1C(N)=O` [Compound 24, (E)-2-(2-Methoxycinnamoylamino)benzamide], 8 µM. On the same count and under the same terms, the result for `COc1cc(OC)c(OC)cc1/C=C/C(=O)Nc1ccccc1C(N)=O` [Compound 25, (E)-2-(2,4,5-Trimethoxycinnamoylamino)benzamide] reads 6 µM; that for `COc1cc(/C=C/C(=O)Nc2ccccc2C(N)=O)cc(OC)c1OC` [Compound 26, (E)-2-(3,4,5-Trimethoxycinnamoylamino)benzamide], 7 µM; that for `NC(=O)c1ccccc1NC(=O)/C=C/c1ccc2c(c1)OCO2` [Compound 30, (E)-2-(3,4-Methylenedioxycinnamoylamino)benzamide], 9 µM. Still for that read-out and setting: the result for `COc1ccc(/C=C/C(=O)Nc2ccccc2C(N)=O)c(OC)c1OC` [Compound 31, (E)-2-(2,3,4-Trimethoxycinnamoylamino)benzamide] reads 54 µM; that for `COc1cc(/C=C/C(=O)Nc2ccccc2C(N)=O)cc(OC)c1` [Compound 32, (E)-2-(3,5-Dimethoxycinnamoylamino)benzamide], 80 µM.

Turning to `CC(=O)c1ccc(/C=C/C(=O)Nc2ccccc2C(N)=O)cc1` [Compound 33, (E)-2-(4-Acetylcinnamoylamino)benzamide], the IC50 (Rattus norvegicus, VSMC) was found to be 78 µM.

For `CCOc1c(OC)cc(/C=C/C(=O)Nc2ccccc2C(N)=O)cc1OC` [Compound 35, (E)-2-(3,5-Dimethoxy-4-ethoxycinnamoylamino)benzamide], the IC50 (Rattus norvegicus, VSMC) was 61 µM. Still for that read-out and setting: the result for `COc1cc(OC)c(/C=C/C(=O)Nc2ccccc2C(N)=O)c(OC)c1` [Compound 37, (E)-2-(2,4,6-Trimethoxycinnamoylamino)benzamide] reads 100 µM; that for `NC(=O)c1ccccc1NC(=O)/C=C/c1ccc2c(c1)OCCO2` [Compound 38, (E)-2-(3,4-Ethylenedioxycinnamoylamino)benzamide], 58 µM; that for `COc1ccc(/C=C/C(=O)Nc2ccccc2C(=O)NCCN(C)C)cc1OC` [Compound 39, (E)-2-(3,4-Dimethoxycinnamoylamino)-N-(2-dimethylaminoethyl)benzamide], 55 µM.

Consider `COc1ccc(/C=C/C(=O)Nc2ccccc2C(=O)NCCOCCO)cc1OC` [Compound 42, (E)-2-(3,4-Dimethoxycinnamoylamino)-N-[2-(2-hydroxyethoxy)ethyl]benzamide], for which the IC50 (Rattus norvegicus, VSMC) came out at 69 µM.

Consider `COc1cc(/C=C/C(=O)Nc2ccccc2C(=O)NCCOCCO)cc(OC)c1OC` [Compound 43, (E)-N-[2-(2-Hydroxyethoxy)ethyl]-2-(3,4,5-trimethoxycinnamoylamino)benzamide], for which the IC50 (Rattus norvegicus, VSMC) worked out at 44 µM.

With `CCOc1ccc(/C=C/C(=O)Nc2ccccc2C(=O)NCCOCCO)cc1OC` [Compound 44, (E)-2-(4-Ethoxy-3-methoxycinnamoylamino)-N-[2-(2-hydroxyethoxy)ethyl]benzamide], the IC50 (Rattus norvegicus, VSMC) came out at 58 µM. For `COc1cc(/C=C/C(=O)Nc2ccccc2C(=O)NCCO)cc(OC)c1OC` [Compound 45, (E)-N-(2-Hydroxyethyl)-2-(3,4,5-trimethoxycinnnamoylamino)benzamide], the IC50 is 34 µM.

In the case of `COc1ccc(/C=C/C(=O)Nc2ccccc2C(=O)NCCO)cc1OC` [Compound 46, (E)-2-(3,4-Dimethoxycinnamoylamino)-N-(2-hydroxyethyl)benzamide], where the note is “Rattus norvegicus, VSMC”, the IC50 was found to be 58 µM. Same read-out and setting: under `COc1ccc(/C=C/C(=O)Nc2ccccc2C(=O)NCCCCO)cc1OC` [Compound 47, (E)-2-(3,4-Dimethoxycinnamoylamino)-N-(4-hydroxybutyl)benzamide] stands 60 µM. Still for that read-out and setting: under `COc1cc(/C=C/C(=O)Nc2ccccc2C(=O)NCCCCO)cc(OC)c1OC` [Compound 48, (E)-N-(4-Hydroxybutyl)-2-(3,4,5-trimethoxycinnamoylamino)benzamide] stands 42 µM; under `CCOc1cc(/C=C/C(=O)Nc2ccccc2C(=O)NCCO)ccc1OC` [Compound 49, (E)-2-(3-Ethoxy-4-methoxycinnamoylamino)-N-(2-hydroxyethyl)benzamide], 42 µM; under `COc1ccc(/C=C/C(=O)Nc2ccccc2C(=O)NCCN(CCO)CCO)cc1OC` [Compound 50, (E)-N-[2-[Bis(2-hydroxyethyl)amino]ethyl]-2-(3,4-dimethoxycinnamoylamino)benzamide], 71 µM. With `COc1cc(/C=C/C(=O)Nc2ccccc2C(=O)NCCN(CCO)CCO)cc(OC)c1OC` [Compound 51, (E)-N-[2-[Bis(2-hydroxyethyl)amino]ethyl]-2-(3,4,5-trimethoxycinnamoylamino)benzamide], the IC50 (Rattus norvegicus, VSMC) was found to be 28 µM. Still for that read-out and setting: the result for `COc1ccc(C=C(C#N)C(=O)Nc2ccccc2C(N)=O)cc1OC` [Compound 52, 2-(α-Cyano-3,4-dimethoxycinnamoylamino)benzamide] reads 117 µM. Same read-out and setting: the result for `COc1ccc(C(C#N)=CC(=O)Nc2ccccc2C(N)=O)cc1OC` [Compound 53, 2-(β-Cyano-3,4-dimethoxycinnamoylamino)benzamide] reads 56 µM; that for `CN(C)c1ccc(/C=C/C(=O)Nc2ccccc2C(N)=O)cc1` [Compound 55, (E)-2-(4-Dimethylaminocinnamoylamino)benzamide], 65 µM. Consider `COc1ccc(/C=C/C(=O)Nc2cc(OC)c(OC)cc2C(=O)NCCO)cc1OC` [Compound 56, (E)-4,5-Dimethoxy-2-(3,4-dimethoxycinnamoylamino)-N-(2-hydroxyethyl)benzamide], for which the IC50 (Rattus norvegicus, VSMC) was found to be 44 µM. On to `COc1cc(NC(=O)/C=C/c2cc(OC)c(OC)c(OC)c2)c(C(N)=O)cc1OC` [Compound 57, (E)-4,5-Dimethoxy-2-(3,4,5-trimethoxycinnamoylamino)benzamide], for which, under “Rattus norvegicus, VSMC”, the IC50 came out at 9 µM. Same read-out and setting: under `CNC(=O)c1ccccc1NC(=O)/C=C/c1ccc(OC)c(OC)c1` [Compound 58, (E)-2-(3,4-Dimethoxycinnamoylamino)-N-methylbenzamide] stands 15 µM; under `COc1ccc(/C=C/C(=O)Nc2ccccc2C(=O)NCC2CCCCC2)cc1OC` [Compound 59, (E)-N-Cyclohexylmethyl-2-(3,4-dimethoxycinnamoylamino)benzamide], 4 µM; under `COc1ccc(/C=C/C(=O)Nc2ccccc2C(=O)NO)cc1OC` [Compound 60, (E)-2-(3,4-Dimethoxycinnamoylamino)-N-hydroxybenzamide], 36 µM.

As to `CCOc1ccc(/C=C/C(=O)Nc2cc(OC)c(OC)cc2C(=O)NCCO)cc1OC` [Compound 61, (E)-4,5-Dimethoxy-2-(4-ethoxy-3-methoxycinnamoylamino)-N-(2-hydroxyethyl)benzamide], the IC50 (Rattus norvegicus, VSMC) worked out at 45 µM.
